According to US11976072B2, “Diacylglycerol kinase modulating compounds” (priority 2021, dated 2024):
pEC50, pIC50: −log10 of the molar value. Read-outs that look alike come from different tables or passages of the source.

Experiments:
human DGKα = human DGKα (Homo sapiens, UniProt P23743); test: DGKα Biochemical Activity Assay (ADP-Glo);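 also: luminescent detection of ADP produced as DGKα phosphorylates DAG to phosphatidic acid, IC50 from four-parameter nonlinear curve fit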
[1] = system: Jurkat NFκB-luciferase cells; test: Jurkat NFκB-Luciferase Assay; format: cell-based; details: Homo sapiens; Jurkat NFκB-luciferase cells activated with anti-CD3 antibody (OKT3), 2.5 hrs at 37° C.; geometric mean; read-out: DGK NFKb Luciferase EC50
Summary of the method: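 Luminescence from One-Glo Ex, read 7 min post-addition, reports NFκB activation in Jurkat luciferase reporter cells. Cells, diluted to 1 million cells/ml in 10% FBS RPMI, were dispensed onto plates holding compound and washed, pre-bound antibody.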

[2] = recombinant DGKα 1 nM, 100 μM ATP, 18:1 DAG/POPS/octylglucoside micelles, 1 hour at 25° C., geometric mean, read-out: HTBS DGKa 1X ATP KM IC50

Chain of human DGKα (P23743 whole entry): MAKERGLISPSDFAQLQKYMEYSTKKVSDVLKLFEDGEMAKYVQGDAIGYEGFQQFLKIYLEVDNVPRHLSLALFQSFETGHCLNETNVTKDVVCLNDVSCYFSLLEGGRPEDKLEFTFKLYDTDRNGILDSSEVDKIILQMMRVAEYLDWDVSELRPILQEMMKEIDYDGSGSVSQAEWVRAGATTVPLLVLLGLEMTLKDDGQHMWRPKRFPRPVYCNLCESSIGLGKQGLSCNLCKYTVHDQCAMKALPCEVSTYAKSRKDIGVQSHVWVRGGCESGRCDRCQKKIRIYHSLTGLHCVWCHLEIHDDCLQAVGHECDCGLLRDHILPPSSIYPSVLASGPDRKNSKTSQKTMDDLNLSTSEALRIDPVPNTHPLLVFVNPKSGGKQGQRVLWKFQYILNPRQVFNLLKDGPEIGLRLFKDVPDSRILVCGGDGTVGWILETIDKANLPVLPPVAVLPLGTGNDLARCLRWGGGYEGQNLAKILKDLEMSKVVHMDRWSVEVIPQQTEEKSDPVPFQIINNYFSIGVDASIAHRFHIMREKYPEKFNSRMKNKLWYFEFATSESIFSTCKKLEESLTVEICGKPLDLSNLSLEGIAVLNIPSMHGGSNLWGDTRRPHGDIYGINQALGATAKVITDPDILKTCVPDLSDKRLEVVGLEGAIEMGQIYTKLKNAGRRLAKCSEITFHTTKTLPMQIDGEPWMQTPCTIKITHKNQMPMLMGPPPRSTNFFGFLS

Row | pIC50 (human DGKα; [2]) | pEC50 [1] | Structure (SMILES) | pIC50 (human DGKα)
1 | 8.13 | 8.05 | Cc1nnc2nc(N3CCCc4c(C#Cc5cn[nH]c5)cccc43)c3cc(F)ccc3n12 [Example 225, 7-fluoro-1-methyl-5-[5-[2-(1H-pyrazol-4-yl)ethynyl]-3,4-dihydro-2H-quinolin-1-yl]-[1,2,4]triazolo[4,3-a]quinazoline] | 
2 | 8.47 | 8.41 | Cc1nnc2nc(N3CCCc4c(C#Cc5cnn(C)c5)cccc43)c3c(F)c(F)ccc3n12 [Example 226, 6,7-difluoro-1-methyl-5-[5-[2-(1-methylpyrazol-4-yl)ethynyl]-3,4-dihydro-2H-quinolin-1-yl]-[1,2,4]triazolo[4,3-a]quinazoline] | 
3 | 7.53 | 8.01 | Cc1nnc2nc(N(CC(F)F)c3cc(F)cc(C#Cc4cnn(C)c4)c3)c3c(F)c(F)ccc3n12 [Example 227, N-(2,2-difluoroethyl)-6,7-difluoro-N-[3-fluoro-5-[2-(1-methylpyrazol-4-yl)ethynyl]phenyl]-1-methyl-[1,2,4]triazolo[4,3-a]quinazolin-5-amine] | 
4 | 7.75 | 9.50 | COc1ccc(C#Cc2cccc3c2CCCN3c2nc3nnc(C)n3c3ccc(F)cc23)cn1 [Example 228, 7-fluoro-5-[5-[2-(6-methoxy-3-pyridyl)ethynyl]-3,4-dihydro-2H-quinolin-1-yl]-1-methyl-[1,2,4]triazolo[4,3-a]quinazoline] | 
5 | 7.78 | 8.98 | Cc1nnc2nc(N3CCCc4c(C#Cc5ccnc(C#N)c5)cccc43)c3cc(F)ccc3n12 [Example 229, 4-[2-[1-(7-fluoro-1-methyl-[1,2,4]triazolo[4,3-a]quinazolin-5-yl)-3,4-dihydro-2H-quinolin-5-yl]ethynyl]pyridine-2-carbonitrile] | 
6 | 8.12 | 8.39 | Cc1nc(C#Cc2cccc3c2CCCN3c2nc3nnc(C)n3c3ccc(F)cc23)cs1 [Example 231, 4-[2-[1-(7-fluoro-1-methyl-[1,2,4]triazolo[4,3-a]quinazolin-5-yl)-3,4-dihydro-2H-quinolin-5-yl]ethynyl]-2-methyl-thiazole] | 
7 | 7.91 | 8.03 | Cc1nnc2nc(N3CCCc4c(C#Cc5cncn5C)cccc43)c3cc(F)ccc3n12 [Example 232, 7-fluoro-1-methyl-5-[5-[2-(3-methylimidazol-4-yl)ethynyl]-3,4-dihydro-2H-quinolin-1-yl]-[1,2,4]triazolo[4,3-a]quinazoline] | 
8 | 8.17 | 8.67 | Cc1nnc2nc(N3CCCc4c(C#Cc5cnn(C)c5)cccc43)c3c(F)cccc3n12 [Example 233, 6-fluoro-1-methyl-5-[5-[2-(1-methylpyrazol-4-yl)ethynyl]-3,4-dihydro-2H-quinolin-1-yl]-[1,2,4]triazolo[4,3-a]quinazoline] | 
9 | 8.41 | 7.63 | Cc1nnc2nc(N3CCCc4c(C#CC5(CO)CC5)cccc43)c3cc(F)ccc3n12 [Example 234, [1-[2-[1-(7-fluoro-1-methyl-[1,2,4]triazolo[4,3-a]quinazolin-5-yl)-3,4-dihydro-2H-quinolin-5-yl]ethynyl]cyclopropyl]methanol] | 
10 | 8.16 | 8.08 | Cc1nnc2nc(N3CCCc4c(C#CC(C)(C)CO)cccc43)c3cc(F)ccc3n12 [Example 235, 4-[1-(7-fluoro-1-methyl-[1,2,4]triazolo[4,3-a]quinazolin-5-yl)-3,4-dihydro-2H-quinolin-5-yl]-2,2-dimethyl-but-3-yn-1-ol] | 
11 | 8.44 | 8.60 | Cc1nnc2nc(N3CCCc4c(C#Cc5cnn(C)c5)cccc43)c3cc(F)ccc3n12 [Example 236, 7-fluoro-1-methyl-5-[5-[2-(1-methylpyrazol-4-yl)ethynyl]-3,4-dihydro-2H-quinolin-1-yl]-[1,2,4]triazolo[4,3-a]quinazoline] | 
12 | 8.08 | 8.90 | Cc1nnc2nc(N(CC(F)F)c3cc(F)cc(C#CC4CC(F)(F)C4)c3)c3c(F)c(F)ccc3n12 [Example 237, N-[3-[2-(3,3-difluorocyclobutyl)ethynyl]-5-fluoro-phenyl]-N-(2,2-difluoroethyl)-6,7-difluoro-1-methyl-[1,2,4]triazolo[4,3-a]quinazolin-5-amine] | 
13 | 8.15 | 7.61 | Cc1nnc2nc(N(CC(F)F)c3cc(F)cc(C#CC4(O)CCC4)c3)c3c(F)c(F)ccc3n12 [Example 238, 1-[2-[3-[2,2-difluoroethyl-(6,7-difluoro-1-methyl-[1,2,4]triazolo[4,3-a]quinazolin-5-yl)amino]-5-fluoro-phenyl]ethynyl]cyclobutanol] | 
14 | 7.61 | 7.50 | CCC(O)C#Cc1cc(F)cc(N(CC(F)F)c2nc3nnc(C)n3c3ccc(F)c(F)c23)c1 (centres unmarked) [Example 239, 1-[3-[2,2-difluoroethyl-(6,7-difluoro-1-methyl-[1,2,4]triazolo[4,3-a]quinazolin-5-yl)amino]-5-fluoro-phenyl]pent-1-yn-3-ol] | 
15 | 8.15 | 8.47 | Cc1nnc2nc(N3CCCc4c(C#CC(C)(C)C#N)cccc43)c3c(F)c(F)ccc3n12 [Example 240, 4-[1-(6,7-difluoro-1-methyl-[1,2,4]triazolo[4,3-a]quinazolin-5-yl)-3,4-dihydro-2H-quinolin-5-yl]-2,2-dimethyl-but-3-ynenitrile] | 
16 | 7.41 | 7.53 | CCC(C)(O)C#Cc1cc(F)cc(N(CC(F)F)c2nc3nnc(C)n3c3ccc(F)c(F)c23)c1 (centres unmarked) [Example 241, 1-[3-[2,2-difluoroethyl-(6,7-difluoro-1-methyl-[1,2,4]triazolo[4,3-a]quinazolin-5-yl)amino]-5-fluoro-phenyl]-3-methyl-pent-1-yn-3-ol] | 
17 | 8.43 | 8.71 | CC(C)(C#N)C#Cc1cccc2c1CCCN2c1nc2nncn2c2ccc(F)c(F)c12 [Example 242, 4-[1-(6,7-difluoro-[1,2,4]triazolo[4,3-a]quinazolin-5-yl)-3,4-dihydro-2H-quinolin-5-yl]-2,2-dimethyl-but-3-ynenitrile] | 
18 | 8.50 | 8.63 | CC(C)(C#N)C#Cc1cccc2c1CCCN2c1nc2nncn2c2cccc(F)c12 [Example 243, 4-[1-(6-fluoro-[1,2,4]triazolo[4,3-a]quinazolin-5-yl)-3,4-dihydro-2H-quinolin-5-yl]-2,2-dimethyl-but-3-ynenitrile] | 
19 | 7.99 | 8.49 | Cc1nnc2nc(N3CCCc4c(C#CC(C)(C)C#N)cccc43)c3cc(F)ccc3n12 [Example 244, 4-[1-(7-fluoro-1-methyl-[1,2,4]triazolo[4,3-a]quinazolin-5-yl)-3,4-dihydro-2H-quinolin-5-yl]-2,2-dimethyl-but-3-ynenitrile] | 
20 | 7.67 | 8.17 | Cc1nnc2nc(N(CC(F)F)c3cc(F)cc(C#CC(C)(C)C#N)c3)c3cc(F)ccc3n12 [Example 245, 4-[3-[2,2-difluoroethyl-(7-fluoro-1-methyl-[1,2,4]triazolo[4,3-a]quinazolin-5-yl)amino]-5-fluoro-phenyl]-2,2-dimethyl-but-3-ynenitrile] | 
21 | 7.41 | 9.57 | Cc1nnc2nc(N3CCCc4c(C#CC5CCC5)cccc43)c3c(F)cccc3n12 [Example 246, 5-[5-(2-cyclobutylethynyl)-3,4-dihydro-2H-quinolin-1-yl]-6-fluoro-1-methyl-[1,2,4]triazolo[4,3-a]quinazoline] | 

Row | Structure (SMILES) | pIC50 (human DGKα; [2]) | pEC50 [1] | pIC50 (human DGKα)
22 | Cc1nnc2nc(N3CCN(C)Cc4c(C#CC(C)(C)C#N)cccc43)c3c(F)cccc3n12 [compound 163] |  | 7.55 | 7.77
